SMILES strings stand for the structures.

The target of the test is BTK (Homo sapiens (Human), UniProt Q06187). In words: In house ELISA kinase inhibition assay, BTK. The format is biochemical. The conditions noted are these: footnote b: from in house procedure (ELISA). As to the method: BTK inhibition Assay and selectivity Assay The assay was conducted either a by a third party (Reaction Biology Corporation, PA, USA) or in house.
Chain of BTK (Q06187 whole entry): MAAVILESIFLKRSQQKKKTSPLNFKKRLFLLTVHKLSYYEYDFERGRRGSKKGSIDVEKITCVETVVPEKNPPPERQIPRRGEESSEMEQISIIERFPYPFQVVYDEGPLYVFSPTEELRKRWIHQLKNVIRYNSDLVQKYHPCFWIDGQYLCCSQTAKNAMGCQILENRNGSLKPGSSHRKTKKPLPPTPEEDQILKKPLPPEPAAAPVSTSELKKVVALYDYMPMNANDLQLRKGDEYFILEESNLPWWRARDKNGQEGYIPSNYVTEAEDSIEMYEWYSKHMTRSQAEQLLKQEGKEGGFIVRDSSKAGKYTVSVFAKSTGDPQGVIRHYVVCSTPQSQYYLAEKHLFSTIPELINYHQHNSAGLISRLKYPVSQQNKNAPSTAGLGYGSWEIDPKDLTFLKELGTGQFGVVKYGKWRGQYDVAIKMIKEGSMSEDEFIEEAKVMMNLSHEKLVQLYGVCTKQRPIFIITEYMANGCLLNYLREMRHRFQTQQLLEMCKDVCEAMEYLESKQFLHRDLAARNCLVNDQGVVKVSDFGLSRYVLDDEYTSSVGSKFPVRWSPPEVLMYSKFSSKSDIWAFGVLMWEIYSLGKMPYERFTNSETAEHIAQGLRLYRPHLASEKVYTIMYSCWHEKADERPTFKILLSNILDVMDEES
b) In House Procedure for BTK, BMX, EGFR and ITK:
Kinase inhibitory activities of compounds were evaluated using the Enzyme-linked immunosorbent assay (ELISA). The kinase enzyme of BTK, BMX, EGFR and ITK were purchased from Carna Bioscience (Kobe, Japan). A total of 10 ng/mL antiphosphotyrosine (PY713) antibody (abcam, Cambridge Science Park, UK) was precoated in 96-well ELISA plates. The kinase enzymes in each reaction well were set to BTK (101.25 ng/mL), BMX (90 ng/mL), EGFR (90 ng/mL) or ITK (120 ng/mL) and incubated with indicated drugs in 1× reaction buffer (50 mmol/L HEPES pH 7.4, 20 mmol/L MgCl2, 0.1 mmol/L MnCl2, 1 mmol/L DTT) containing 20 μmol/L (the final concentration of substrate in ITK reaction was 30 μmol/L) substrate (NH2-[…]-biotin) at 25° C. for 1 h. Then, a total of 3 μmol/L ATP was added and the reaction was continued for 2 h. The products of reaction were transferred into 96-well ELISA plates containing antibody and incubated at 25° C. for 30 min. After incubation, the wells were washed with PBS and then incubated with horseradish peroxidase (HRP)-conjugated streptavidin. The wells were visualized using 3,3′,5,5′-tetramethylbenzidine (TMB), and chromogenic reaction was ended with 2 mol/L H2SO4, the absorbance was read with a multimode plate reader (PerkinElmer, USA) at 450 nm. IC50 values and curve fits were obtained using Prism (GraphPad Software). (Table I-IV)
Regarding `C=CC(=O)N1CCC[C@H]1c1nc(-c2ccc(C(=O)Nc3cc(C)ccn3)cc2)c(C(N)=O)n1N` [Example 10, (S)-2-(1-acryloylpyrrolidin-2-yl)-1-amino-4-(4-((4-methylpyridin-2-yl)carbamoyl)phenyl)-1H-imidazole-5-carboxamide], the IC50 came to 79 nM.
In turn, `C=CC(=O)N1CCC[C@H]1c1nc(-c2ccc(C(=O)Nc3ccc(C)cn3)cc2)c(C(N)=O)n1N` [Example 19, (S)-2-(1-acryloylpyrrolidin-2-yl)-1-amino-4-(4-((5-methylpyridin-2-yl)carbamoyl)phenyl)-1H-imidazole-5-carboxamide] came in with an IC50 of 212 nM.
In turn, `CC#CC(=O)N1CCC[C@H]1c1nc(-c2ccc(C(=O)Nc3ccc(C)cn3)cc2)c(C(N)=O)n1N` [Example 27, (S)-1-amino-2-(1-(but-2-ynoyl)pyrrolidin-2-yl)-4-(4-((5-methylpyridin-2-yl)carbamoyl)phenyl)-1H-imidazole-5-carboxamide] gave a concentration for half-maximal inhibition (IC50) of 2060 nM. This IC50 is about 9.7-fold higher than that of the compound before.
For `C=CC(=O)N1CCC[C@H]1c1nc(-c2ccc(C(=O)Nc3cc(OC)ccn3)cc2)c(C(N)=O)n1N` [Example 28, (S)-2-(1-acryloylpyrrolidin-2-yl)-1-amino-4-(4-((4-methoxypyridin-2-yl)carbamoyl)phenyl)-1H-imidazole-5-carboxamide], the IC50 turned out to be 72.9 nM.
With `CC#CC(=O)N1CCC[C@H]1c1nc(-c2ccc(C(=O)Nc3cc(OC)ccn3)cc2)c(C(N)=O)n1N` [Example 34, (S)-1-amino-2-(1-(but-2-ynoyl)pyrrolidin-2-yl)-4-(4-((4-methoxy-pyridin-2-yl)carbamoyl)phenyl)-1H-imidazole-5-carboxamide], the IC50 is 1670 nM.
For `C=CC(=O)N1CCC[C@H]1c1nc(-c2ccc(C(=O)Nc3cc(CC)ccn3)cc2)c(C(N)=O)n1N` [Example 35, (S)-2-(1-acryloylpyrrolidin-2-yl)-1-amino-4-(4-((4-ethylpyridin-2-yl)carbamoyl)phenyl)-1H-imidazole-5-carboxamide] the value was 33 nM.
Regarding `CC#CC(=O)N1CCC[C@H]1c1nc(-c2ccc(C(=O)Nc3cc(CC)ccn3)cc2)c(C(N)=O)n1N` [Example 38, (S)-1-amino-2-(1-(but-2-ynoyl)pyrrolidin-2-yl)-4-(4-((4-ethylpyridin-2-yl)carbamoyl)phenyl)-1H-imidazole-5-carboxamide], the IC50 was 1040 nM. This IC50 lies about 32-fold higher than the previous one.
`CCc1ccnc(NC(=O)c2ccc(-c3nc([C@@H]4CCCN4C#N)n(N)c3C(N)=O)cc2)c1` [Example 39, (S)-1-amino-2-(1-cyanopyrrolidin-2-yl)-4-(4-((4-ethylpyridin-2-yl)carbamoyl)phenyl)-1H-imidazole-5-carboxamide] returned a half-maximal inhibitory concentration (IC50) of 3850 nM.
Turning to `C=CC(=O)N1CCC[C@H]1c1nc(-c2ccc(C(=O)Nc3cc(F)ccn3)cc2)c(C(N)=O)n1N` [Example 40, (S)-2-(1-acryloylpyrrolidin-2-yl)-1-amino-4-(4-((4-fluoropyridin-2-yl)carbamoyl)phenyl)-1H-imidazole-5-carboxamide], half-maximal inhibition (IC50) was put at 70.6 nM.
For the compound `CC#CC(=O)N1CCC[C@H]1c1nc(-c2ccc(C(=O)Nc3cc(F)ccn3)cc2)c(C(N)=O)n1N` [Example 41, (S)-1-amino-2-(1-(but-2-ynoyl)pyrrolidin-2-yl)-4-(4-((4-fluoropyridin-2-yl)carbamoyl)phenyl)-1H-imidazole-5-carboxamide], half-maximal inhibition (IC50) was put at 1680 nM. This IC50 is about 24-fold higher than that of the compound before.
`C=CC(=O)N1CCC[C@H]1c1nc(-c2ccc(C(=O)Nc3cc(C(F)(F)F)ccn3)cc2)c(C(N)=O)n1N` [Example 42, (S)-2-(1-acryloylpyrrolidin-2-yl)-1-amino-4-(4-((4-(trifluoromethyl)pyridin-2-yl)carbamoyl)phenyl)-1H-imidazole-5-carboxamide] displayed an IC50 of 48 nM.
Compound `CC#CC(=O)N1CCC[C@H]1c1nc(-c2ccc(C(=O)Nc3cc(C(F)(F)F)ccn3)cc2)c(C(N)=O)n1N` [Example 43, (S)-1-amino-2-(1-(but-2-ynoyl)pyrrolidin-2-yl)-4-(4-((4-(trifluoro-methyl)pyridin-2-yl)carbamoyl)phenyl)-1H-imidazole-5-carboxamide] displayed an IC50 of 577 nM.
For `C=CC(=O)N1CCC[C@H]1c1nc(-c2ccc(C(=O)Nc3cc(C(C)C)ccn3)cc2)c(C(N)=O)n1N` [Example 44, (S)-2-(1-acryloylpyrrolidin-2-yl)-1-amino-4-(4-((4-isopropylpyridin-2-yl)carbamoyl)phenyl)-1H-imidazole-5-carboxamide], the IC50 amounted to 122 nM. This IC50 lies about 4.7-fold lower than the previous one.
For `C=CC(=O)N1CCC[C@H]1c1nc(-c2ccc(C(=O)Nc3cc(C)ccn3)cc2)c(C(N)=O)n1NC` [Example 45, (S)-2-(1-acryloylpyrrolidin-2-yl)-1-(methylamino)-4-(4-((4-methyl-pyridin-2-yl)carbamoyl)phenyl)-1H-imidazole-5-carboxamide] the value was 58.2 nM; for `CC#CC(=O)N1CCCC[C@H]1c1nc(-c2ccc(C(=O)Nc3ccccn3)cc2)c(C(N)=O)n1N` [Example 50, (S)-1-amino-2-(1-(but-2-ynoyl)piperidin-2-yl)-4-(4-(pyridin-2-ylcarbamoyl)phenyl)-1H-imidazole-5-carboxamide], 100 nM.
The compound `C=CC(=O)N1CCCC[C@H]1c1nc(-c2ccc(C(=O)Nc3cc(C)ccn3)cc2)c(C(N)=O)n1N` [Example 53, (S)-2-(1-acryloylpiperidin-2-yl)-1-amino-4-(4-((4-methylpyridin-2-yl)carbamoyl)phenyl)-1H-imidazole-5-carboxamide] returned an IC50 of 18.1 nM.
In turn, `CC#CC(=O)N1CCCC[C@H]1c1nc(-c2ccc(C(=O)Nc3cc(C)ccn3)cc2)c(C(N)=O)n1N` [Example 58, (S)-1-amino-2-(1-(but-2-ynoyl)piperidin-2-yl)-4-(4-((4-methylpyridin-2-yl)carbamoyl)phenyl)-1H-imidazole-5-carboxamide] yielded an IC50 of 58.1 nM.
Next, `C=C(F)C(=O)N1CCCC[C@H]1c1nc(-c2ccc(C(=O)Nc3cc(C)ccn3)cc2)c(C(N)=O)n1N` [Example 59, (S)-1-amino-2-(1-(2-fluoroacryloyl)piperidin-2-yl)-4-(4-((4-methylpyridin-2-yl)carbamoyl)phenyl)-1H-imidazole-5-carboxamide]: 1270 nM; `Cc1ccnc(NC(=O)c2ccc(-c3nc([C@@H]4CCCCN4C(=O)/C=C/C(F)(F)F)n(N)c3C(N)=O)cc2)c1` [Example 60, (S,E)-1-amino-4-(4-((4-methylpyridin-2-yl)carbamoyl)phenyl)-2-(1-(4,4,4-trifluorobut-2-enoyl)piperidin-2-yl)-1H-imidazole-5-carboxamide]: 43.9 nM; `C=CC(=O)N1CCCC[C@H]1c1nc(-c2ccc(C(=O)Nc3ccc(C)cn3)cc2)c(C(N)=O)n1N` [Example 61, (S)-2-(1-acryloylpiperidin-2-yl)-1-amino-4-(4-((5-methylpyridin-2-yl)carbamoyl)phenyl)-1H-imidazole-5-carboxamide]: 18.4 nM.
For `CC#CC(=O)N1CCCC[C@H]1c1nc(-c2ccc(C(=O)Nc3ccc(C)cn3)cc2)c(C(N)=O)n1N` [Example 64, (S)-1-amino-2-(1-(but-2-ynoyl)piperidin-2-yl)-4-(4-((5-methylpyridin-2-yl)carbamoyl)phenyl)-1H-imidazole-5-carboxamide] the value was 129 nM; for `C=CC(=O)N1CCCC[C@H]1c1nc(-c2ccc(C(=O)Nc3cc(-c4ccccc4)ccn3)cc2)c(C(N)=O)n1N` [Example 65, (S)-2-(1-acryloylpiperidin-2-yl)-1-amino-4-(4-((4-phenylpyridin-2-yl)carbamoyl)phenyl)-1H-imidazole-5-carboxamide], 5.06 nM; for `CC#CC(=O)N1CCCC[C@H]1c1nc(-c2ccc(C(=O)Nc3cc(-c4ccccc4)ccn3)cc2)c(C(N)=O)n1N` [Example 66, (S)-1-amino-2-(1-(but-2-ynoyl)piperidin-2-yl)-4-(4-((4-phenylpyridin-2-yl)carbamoyl)phenyl)-1H-imidazole-5-carboxamide], 16.4 nM.
Take `C=CC(=O)N1CCCC[C@H]1c1nc(-c2ccc(C(=O)Nc3cc(OC)ccn3)cc2)c(C(N)=O)n1N` [Example 67, (S)-2-(1-acryloylpiperidin-2-yl)-1-amino-4-(4-((4-methoxypyridin-2-yl)carbamoyl)phenyl)-1H-imidazole-5-carboxamide]: 9.12 nM corresponded to half-maximal inhibition (IC50).
For `CC#CC(=O)N1CCCC[C@H]1c1nc(-c2ccc(C(=O)Nc3cc(OC)ccn3)cc2)c(C(N)=O)n1N` [Example 68, (S)-1-amino-2-(1-(but-2-ynoyl)piperidin-2-yl)-4-(4-((4-methoxy-pyridin-2-yl)carbamoyl)phenyl)-1H-imidazole-5-carboxamide], the IC50 came to 79.6 nM.
Take `COc1ccnc(NC(=O)c2ccc(-c3nc([C@@H]4CCCCN4C(=O)/C=C/C(F)(F)F)n(N)c3C(N)=O)cc2)c1` [Example 69, (S,E)-1-amino-4-(4-((4-methoxypyridin-2-yl)carbamoyl)phenyl)-2-(1-(4,4,4-trifluorobut-2-enoyl)piperidin-2-yl)-1H-imidazole-5-carboxamide]: the IC50 was 70.7 nM.

For orientation: IC50 means the concentration that inhibits the measured activity by half.

(Values after patent US12291516B2, “Substituted 1-amino-1H-imidazole-5-carboxamide as Bruton's tyrosine kinase inhibitors” (Henan Zhiwei Biomedicine Co., Ltd., priority 2019, dated 2025).)
